Experimental data taken from patent publication US20030166583A1, “Dermal cytochrome P450 1A inhibitors and enhancers” (priority 2002, published 2003).
Read-outs that look alike come from different tables or passages of the source.

Columns and labels:
CYP1A [1] = assay: in vitro; details: nude, mouse; for activity at 10 min, 1 µM / activity at 10 min, 10 µM / activity at 10 min, 100 µM: pH 7.8, dermal CYP1A activity (% of control group); for inhibition at 10 min, 100 µM: pH 7.8, inhibition of dermal CYP1A activity
Description: (§1) Nude mice were sacrificed by decapitation.
(§2) The precipitate containing the microsomes was obtained.

CYP1A [2] = assay: in vitro; details: nude, mouse, pH 7.8
dermal CYP1A = assay: in vitro
Description: as §1, §2

O=c1cc(-c2ccc(O)cc2)oc2cc(O)cc(O)c12 [Apigenin]
activity at 10 min, 1 µM (CYP1A [1]): 103% | activity at 10 min, 10 µM (CYP1A [1]): 97.2% | activity at 10 min, 100 µM (CYP1A [1]): 76.4% | inhibition at 10 min, 100 µM (CYP1A [1]): ~24% | activity at 10 min, 1 µM (CYP1A [2]): 118% | activity at 10 min, 100 µM (CYP1A [2]): 53.5%

O=c1cc(-c2ccccc2)oc2ccc3ccccc3c12 [Beta-NF, β-naphthoflavone]
liver CYP1A activity (% of control group) (liver CYP1A; 1 µM): 75.00% | liver CYP1A activity (% of control group) (liver CYP1A; 10 µM): 22.78% | liver CYP1A activity (% of control group) (liver CYP1A; 100 µM): 13.79% | dermal CYP1A activity (% of control group) (dermal CYP1A; 1 µM): 27.41% | dermal CYP1A activity (% of control group) (dermal CYP1A; 10 µM): 24.00% | dermal CYP1A activity (% of control group) (dermal CYP1A; 100 µM): 3.76%

O=C(O)/C=C/c1ccccc1 [Trans-cinnamic acid]
activity at 10 min, 1 µM (CYP1A [1]): 117% | activity at 10 min, 10 µM (CYP1A [1]): 110% | activity at 10 min, 100 µM (CYP1A [1]): 86.6% | inhibition at 10 min, 100 µM (CYP1A [1]): ~13% | activity at 10 min, 1 µM (CYP1A [2]): 109% | activity at 10 min, 10 µM (CYP1A [2]): 103% | activity at 10 min, 100 µM (CYP1A [2]): 101%
